Columns and labels:
P2RX3-receptors = target: T1, P2RX3-receptors (Homo sapiens, UniProt P56373); assay: Calcium flux measurements (Fluo-3 AM) in iNBSC-derived sensory neurons; format: cell-based
T1 construct: endogenous in cells; host or cells: sensory neurons differentiated from human iNBSCs (WT and SCN9a-/- cultures)
T1 sequence (P56373 1-397): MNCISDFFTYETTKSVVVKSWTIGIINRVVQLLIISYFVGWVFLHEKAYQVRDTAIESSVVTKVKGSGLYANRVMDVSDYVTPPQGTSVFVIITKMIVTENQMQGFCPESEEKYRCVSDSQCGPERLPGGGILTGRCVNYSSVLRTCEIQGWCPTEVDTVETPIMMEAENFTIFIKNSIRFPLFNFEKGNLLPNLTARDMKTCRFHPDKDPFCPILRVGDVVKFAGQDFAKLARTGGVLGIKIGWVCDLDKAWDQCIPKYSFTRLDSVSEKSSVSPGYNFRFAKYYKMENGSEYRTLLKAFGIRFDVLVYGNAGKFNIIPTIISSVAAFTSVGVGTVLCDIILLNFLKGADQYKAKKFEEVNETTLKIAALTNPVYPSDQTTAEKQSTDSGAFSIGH
Experimental: Cell cultures were incubated in a solution containing the cell-permeable fluorescent Ca2+ indicator Fluo-3 AM (2 μM; F1242, Thermo Scientific™) and Cell Tracker Red CMTPX (1 μM; C34552, Thermo Scientific™) to delineate cell membranes. Dye loading was carried out in an incubator at 37° C., 5% CO2 for 30 min.
Imaging of fluorescently labeled cells was performed on a TCS SP5 microscope (Leica) equipped with a 20×(1 numerical aperture) water-immersion objective. Images (512×512 pixels) were acquired at 1000 Hz speed every 0.8-1.6 seconds with 0.5 μm per pixel resolution in the xy dimension, and 3-4 μm steps in the z dimension. Argon and HeNe-543 lasers were used to excite Fluo-3 AM and Cell Tracker Red CMTPX dyes, respectively. […] After recording baseline fluorescence for 2 minutes, α,β-methylene ATP was applied (30 μM in ACSF; COMPANY) for 2 minutes. […]
We obtained relative fluorescence changes (Fi/F0), where F0 is the fluorescence image formed by averaging the first 50 frames of the sequence, and F(i) represents each (i) frame of the recording. […]
We then studied global calcium activity by averaging fluorescence intensity in the whole image before and in response to stimulation with α,β-methylene ATP in WT−(n=3) and SCN9−/− (n=4) neuronal cultures.

pNBSCs = assay: Culture of pNBSCs on Matrigel in absence of feeders with Notch-ligands; format: cell-based, mouse; settings: cultured on MG with DII4 and Jagged1 together, 500 ng/ml each
Experimental: a, Preparation of E8.5 stage embryos for isolation of pNBSCs. Representative microscopy pictures of an E8.5 stage embryo prior to dissection of neural tissue. […] Results are shown for two independent pNBSC clones and E13.5 stage derived RG-like SCs (n=3; t-test, **P<0.01, Mean with SEM). g, Culture of pNBSCs on inactivated MEFs (feeder) or Matrigel in presence or absence of Notch-ligands 500 ng/ml DII4 and 500 ng/ml Jagged-1. h, Regional identity of pNBSCs. mRNA expression of region specific markers was determined in three independent pNBSCs lines. Expression was normalized to whole E13.5 stage fetal brains. i, Flow cytometry data of a pNBSC line under maintenance and neural crest priming condition. pNBSCs were either cultured in CAP or CA+BMP4 for 5 days before levels of Ssea1 and P75 were determined by flow cytometry. j, Immunofluorescence stainings for serotonin on neuronal differentiation. pNBSCs were differentiated in presence of Purmorphamine for 3 days and matured for additional 2 weeks before stainings were performed; scale bar 50 μm. k, BF pictures of pNBSCs embedded as single cell suspension in MG after CNS- and NC-priming. pNBSCs were cultured in CSP for 6 days (upper panel) or CABF for 10 days (lower panel). […]

| Compound | rapid differentiation of pNBSCs in the absence of feeders (pNBSCs) | also measured |
| --- | --- | --- |
| O=C(O)c1cc(C(=O)O)c(C(=O)N(Cc2cccc(Oc3ccccc3)c2)[C@H]2CCCc3ccccc32)cc1C(=O)O [A-317491] | – | α,β-Methylene-ATP-induced calcium flux (neuronal activity) in the presence of antagonist (P2RX3-receptors; 1 μM A-317491, stimulation with 30 μM α,β-methylene ATP, WT sensory neurons, compared to controls, t-test P<0.05): significantly reduced |
| Nc1ncnc2c1ncn2[C@@H]1O[C@H](COP(=O)(O)CP(=O)(O)OP(=O)(O)O)[C@@H](O)[C@H]1O [α,β-Methylene-ATP] | – | neuronal activity by calcium flux measurements upon stimulation (P2RX3-receptors; 30 μM α,β-methylene ATP, WT iNBSC-derived sensory neurons, Fluo-3 AM fluorescence relative to baseline): robust increase of activity |
| DII4: Notch-ligand | partially halted | – |
| Jagged1: Notch-ligand | partially halted | – |

From patent US20200140812A1, “NOVEL METHODS FOR THE GENERATION AND USE OF HUMAN INDUCED NEURAL BORDER STEM CELLS” (HI-STEM gGmbH, priority 2017, published 2020)
